# Test: not given
# Conditions: Ionic Surfactants (Table 98); cited from earlier work
row,Molecule,HLB
1,CCCCCCCCCCCCOS(=O)(=O)[O-].[Na+] [Sodium lauryl sulfate (dodecyl)],40
2,CCCCCCCC/C=C\CCCCCCCC(=O)[O-].[Na+] [Sodium oleate],18

# Same assay, conditions: Lower Alcohol Fatty Acid Ester Surfactants (Table 97); cited from earlier work
row,Molecule,HLB
1,CCCCC/C=C\C/C=C\CCCCCCCC(=O)OCC [Ethyl linoleate],<10
2,CCCCCCCC/C=C\CCCCCCCC(=O)OCC [Ethyl oleate],<10
3,CCCCC/C=C\C/C=C\CCCCCCCC(=O)OC(C)C [Isopropyl linoleate],<10
4,CCCCCCCCCCCCCC(=O)OC(C)C [Isopropyl myristate],<10

# Same assay, conditions: Mono- and Diglyceride Surfactants (Table 89); cited from earlier work
row,Molecule,HLB
1,CCCCC/C=C\C/C=C\CCCCCCCC(=O)OCC(O)CO (stereo not drawn) [Glycerol monolinoleate],3-4
2,CCCCCCCCCCCCCCCC(=O)OCC(O)CO (stereo not drawn) [Glycerol monopalmitate],4
3,CCCCCCCCCCCCCCCCCC(=O)OCC(O)CO (stereo not drawn) [Glycerol monostearate],5-9
4,CC(=O)OCC(O)CO (stereo not drawn) [Glyceryl acetate],<10
5,CCCCCCCC(=O)OCC(O)CO (stereo not drawn) [Glyceryl caprylate],5-6
6,CCCCCCCCCCCC(=O)OCC(O)CO (stereo not drawn) [Glyceryl laurate],4
7,CCCCCCCCCCCC(=O)OCC(O)CO (stereo not drawn) [Glyceryl monolaurate],6.8
8,CCCCCCCCCCCCCC(=O)OCC(O)CO (stereo not drawn) [Glyceryl monomyristate (C14)],3-4
9,CCCCCCCC/C=C\CCCCCCCC(=O)OCC(O)CO (stereo not drawn) [Glyceryl monooleate (C18:1)],3-4
10,CCCCCC[C@@H](O)C/C=C\CCCCCCCC(=O)OCC(O)CO (stereo partly drawn) [Glyceryl ricinoleate],6
11,CCCCCCCCCC(=O)OCC(O)CO (stereo not drawn) [Monocaprin],<10
12,CCCCCC(=O)OCC(O)CO (stereo not drawn) [Monocaproin (C6)],<10
13,CCCCCCCC(=O)OCC(O)CO (stereo not drawn) [Monocaprylin],<10
14,CCCCCCCC/C=C/CCCCCCCC(=O)OCC(O)CO (stereo not drawn) [Monoelaidin (C18:1)],<10
15,CCCCCCCCCCCC(=O)OCC(O)CO (stereo not drawn) [Monolaurin],<10
16,Caprylic/capric glycerides,<10
17,Distearin,<10
18,Glycerol monooleate/linoleate,3-4
19,Glyceryl dioleate,3-4
20,"Glyceryl mono-, dioleate",<10
21,Glyceryl palmitic/stearic,<10
22,Mono-and diacetylated monoglycerides,3.8-4

# Same assay, conditions: Polyethylene Glycol Alkyl Ethers (Table 92); cited from earlier work
row,Molecule,HLB
1,PEG-3 oleyl ether,<10
2,PEG-4 lauryl ether,9.7
3,PEG-5 oleyl ether,<10

# Same assay, conditions: Sorbitan Fatty Acid Ester Surfactants (Table 96); cited from earlier work
row,Molecule,HLB
1,CCCCCCCCCCCCCCCC(=O)OC[C@@H](O)[C@H]1OC[C@H](O)[C@H]1O [Sorbitan monopalmitate],6.7
2,Sorbitan monoisostearate,4.7
3,Sorbitan monooleate,4.3
4,Sorbitan monostearate,4.7
5,Sorbitan sesquistearate,4.2
6,Sorbitan trioleate,4.3

# Same assay, conditions: Sterol and Sterol Derivative Surfactants (Table 90); cited from earlier work
row,Molecule,HLB
1,PEG-5 soya sterol,<10
2,PEG-10 soya sterol,<10
3,PEG-20 soya sterol,<10
4,PEG-24 cholesterol ether,>10
5,PEG-25 phyto sterol,>10
6,PEG-30 cholestanol,>10
7,PEG-30 soya sterol,>10
8,Phytosterol,<10

# Same assay, conditions: Sugar Ester Surfactants (Table 93); cited from earlier work
row,Molecule,HLB
1,Sucrose dipalmitate,7.4
2,Sucrose distearate,3
3,Sucrose monopalmitate,>10

# Test: Moisture content and pH of aqueous solutions of bupropion salts
# Format: physicochemical
# Conditions: Original (Initial APIs)
Molecule,moisture content KF [%],pH (aq. 0.5%)
CC(NC(C)(C)C)C(=O)c1cccc(Cl)c1.O=C(O)CC(O)(CC(=O)O)C(=O)O (stereo not drawn) [Bup-Citrate (I)],0.23,3.89
Br.CC(NC(C)(C)C)C(=O)c1cccc(Cl)c1 (stereo not drawn) [Bup-HBr],0.00,

# — patent US7645802B2 (Biovail Laboratories International SRL., priority 2005, dated 2010)
